Test results taken from US6670360B2, “Optically active pyrrolopyridazine derivatives” (Sankyo Company, Limited, priority 1999, dated 2003).

Legend:
gastric acid secretion = assay: Gastric acid secretion inhibition activity in pylorus-ligated rats; assay type: in vivo; settings: for 50% inhibitory dose (ID50, mg/kg) against gastric acid secretion: pylorus-ligated rats, oral administration, four hours after administration
Text: Gastric Acid Secretion Inhibition Activity After groups of rats, each group consisting of 3 to 5 rats, were fasted overnight, they were subjected to midline abdominal incision and their pylorus was ligated under anesthesia with ether. The stomach and duodenum were returned to their original positions in the body, followed by closing at the abdominal incision part. A predetermined amount of a test compound was suspended in an aqueous solution containing 0.5% of sodium carboxymethylcellulose and 0.4% of Tween 80 (Polysorbate 80). The resulting suspension was orally administered to the rats. As a control, an aqueous suspension (suspending solvent) containing 0.5% of sodium carboxymethylcellulose and 0.4% of Tween 80 (Polysorbate 80) was orally administered to other rats. Four hours after administration of the test compound or suspending solvent, the rats were sacrificed by inhalation of CO2 gas. They were subjected to abdominal incision to remove their stomach. The content of the stomach was collected in a glass-made graduated centrifuge tube. After centrifugation, the amount (ml) of the supernatant and the amount (ml) of the precipitate were measured. The precipitate of the amount exceeding 0.5 ml was regarded as coprophage and removed from the data. The supernatant (100 μl) was poured into a test tube. Distilled water (4 ml) was added to the solution, and the solution was titrated to pH 7.0 with 0.01 N sodium hydroxide. A standard acid concentration solution obtained by adding 4 ml of distilled water to 100 μl of 0.1 N hydrochloric acid was titrated in a similar manner. […]

[1] = target: T1, proton potassium-adenosine triphosphatase (H+·K+-ATPase) (Sus scrofa, UniProt P19156); assay: Test on activity of proton potassium-adenosine triphosphatase (H+·K+-ATPase); assay type: biochemical; settings: microsomal fraction of swine gastric mucosal layer, pH 6.85, 37° C.; read-out: 50% inhibitory concentration (IC50) against proton-potassium-adenosine triphosphatase
T1 construct: A microsomal fraction prepared in accordance with the method of Sachs, et al; from tissue; host or cells: swine gastric mucosa, microsomal fraction (density gradient ultracentrifugation)
T1 sequence (P19156 2-1034 limits assumed): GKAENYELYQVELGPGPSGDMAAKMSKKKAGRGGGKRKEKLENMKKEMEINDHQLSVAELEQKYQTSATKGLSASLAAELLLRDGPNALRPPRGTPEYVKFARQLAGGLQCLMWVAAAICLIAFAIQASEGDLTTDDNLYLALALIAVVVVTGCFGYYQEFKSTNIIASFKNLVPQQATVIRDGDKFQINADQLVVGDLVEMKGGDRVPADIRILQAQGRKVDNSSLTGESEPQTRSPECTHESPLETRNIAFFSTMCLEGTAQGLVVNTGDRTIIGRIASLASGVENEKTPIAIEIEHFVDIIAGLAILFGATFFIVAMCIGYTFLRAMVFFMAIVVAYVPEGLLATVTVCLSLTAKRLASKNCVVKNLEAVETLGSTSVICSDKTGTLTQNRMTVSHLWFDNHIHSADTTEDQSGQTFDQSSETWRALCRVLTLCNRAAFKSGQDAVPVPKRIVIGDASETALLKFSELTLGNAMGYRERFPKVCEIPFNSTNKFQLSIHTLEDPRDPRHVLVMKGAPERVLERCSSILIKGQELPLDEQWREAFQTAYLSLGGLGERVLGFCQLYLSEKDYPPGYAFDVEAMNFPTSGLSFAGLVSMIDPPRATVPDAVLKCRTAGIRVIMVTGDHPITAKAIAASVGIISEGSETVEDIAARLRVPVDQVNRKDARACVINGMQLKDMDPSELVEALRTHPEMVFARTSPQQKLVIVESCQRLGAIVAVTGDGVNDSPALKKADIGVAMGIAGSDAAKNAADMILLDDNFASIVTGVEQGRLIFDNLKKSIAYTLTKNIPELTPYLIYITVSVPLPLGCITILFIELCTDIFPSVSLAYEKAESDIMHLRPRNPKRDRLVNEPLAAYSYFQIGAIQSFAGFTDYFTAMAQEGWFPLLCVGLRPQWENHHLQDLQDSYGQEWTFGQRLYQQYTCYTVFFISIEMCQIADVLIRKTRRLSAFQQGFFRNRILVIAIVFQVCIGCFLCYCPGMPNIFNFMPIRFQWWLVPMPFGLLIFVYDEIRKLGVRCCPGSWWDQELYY
T1 sequence (P18434 whole entry partner): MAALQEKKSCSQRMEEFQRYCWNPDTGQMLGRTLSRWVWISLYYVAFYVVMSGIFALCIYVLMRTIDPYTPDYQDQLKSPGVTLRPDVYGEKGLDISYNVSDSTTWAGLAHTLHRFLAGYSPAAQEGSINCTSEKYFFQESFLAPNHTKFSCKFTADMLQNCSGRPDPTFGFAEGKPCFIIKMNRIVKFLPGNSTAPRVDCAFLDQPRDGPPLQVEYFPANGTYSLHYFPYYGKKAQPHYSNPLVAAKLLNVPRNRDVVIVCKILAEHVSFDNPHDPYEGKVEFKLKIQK
Experimental: Test on Activity of Proton Potassium-adenosine Triphosphatase (H^+·K^+-ATPase) A microsomal fraction prepared in accordance with the method of Sachs, et al. [J. Bio., Chem., 251, 7690 (1976)] by homogenizing a fresh gastric mucosal layer of swine and then subjecting the homogenate to density gradient ultra centrifugation was employed as a proton potassium-adenosine triphosphatase preparation. A solution (10 μl) of a test compound dissolved in dimethyl sulfoxide was added to 0.75 ml of a 70 mM tris-hydrochloric acid buffer (5 mM magnesium chloride, 20 mM potassium chloride, pH=6.85) containing 30 to 80 μg/ml, in terms of a protein concentration, of an enzyme preparation. The mixture was incubated with 200 times/min of agitation at 37° C. for 45 minutes. The enzymatic reaction was started by adding 0.25 ml of a 8 mM solution of disodium adenosine triphosphate. After this enzymatic reaction was continued for 20 minutes, 1 ml of a 10% trichloroacetic acid-activated charcoal (100 mg) solution was added to terminate the reaction. The reaction mixture was centrifuged (at 4° C. and 3000 rpm) for 15 minutes. […] The amount of inorganic phosphoric acid in a reaction mixture free from potassium chloride was also measured. By subtracting this amount from the amount of inorganic phosphoric acid in the presence of potassium chloride, proton potassium-adenosine triphosphatase activity was determined. […]

[2] = tested on: Helicobacter pylori strains 9470, 9472 and 9474; assay: Antibacterial action against Helicobacter pylori (MIC, agar dilution); assay type: cell-based; settings: 72 h, cultured at 37° C. for 3 days, microaerophilic conditions, read-out: MIC (Minimum Inhibitory Concentration) against Helicobacter pylori
Experimental: Antibacterial Action Against Helicobacter pylori The antibacterial activity of the invention compound was evaluated by using Helicobacter pylori strains 9470, 9472 and 9474 and determining MIC (Minimum Inhibitory Concentration) of the invention compound against Helicobacter pylori. Helicobacter pylori was cultured by plating for 4 days. A medium was prepared by dissolving Brain Heart Infusion Agar (product of Difco Laboratories) in a prescribed amount of distilled water, sterilizing in an autoclave, adding equine blood (product of Nippon Seibutsu Zairyo) to give its concentration of 7% and then solidifying the mixture. Under microaerophilic conditions, Helicobacter pylori which had been cultured at 37° C. for 4 days was suspended in physiological saline to give its viable count of about 10^8 CFU/ml. The suspension was then diluted to 100 times and a portion (about 10 μl) of the diluted suspension was inoculated in a medium for measuring MIC. The medium employed for measuring MIC has the same composition as the preculture medium. A compound of this invention was dissolved in dimethyl sulfoxide (DMSO) and two-fold serial dilutions were made with sterilized water. After mixing the solution and the medium in a ratio of 1:99, a solidified product in the Petri dish was employed as an MIC measuring medium. […]

Row | IC50 [1] [µM] | MIC [2] [µg/mL] | SMILES | 50% inhibitory dose (ID50, mg/kg) against gastric acid secretion (gastric acid secretion) [mg/kg] | effects on gastric acid secretion relative to its racemate (times stronger) (gastric acid secretion; from ID50 values of Table 2, versus racemate (Compound A))
1 |  |  | Cc1c(C)n(CC2CC2C)c2c(OCc3ccc(F)cc3)nncc12 (racemic) [Compound A, 7-(4-Fluorobenzyloxy)-1-[(E)-2-methylcyclopropylmethyl]-2,3-dimethylpyrrolo[2,3-d]pyridazine (racemate), reference compound] | 1.64 | 
2 | ≤ 0.295 | ≤ 12.5 | Cc1c(C)n(C[C@H]2C[C@@H]2C)c2c(OCc3ccc(F)cc3)nncc12 [Example 1, 7-(4-Fluorobenzyloxy)-2,3-dimethyl-1-[(1S,2S)-2-methylcyclopropylmethyl]pyrrolo[2,3-d]pyridazine] | 0.52 | about 3 times
